Data published in patent publication US11884658B1, “1-cyclopropyl-6-fluoro-4-oxo-7-(4-((2-thioxobenzo[d]thiazol-3(2H)-yl)methyl)piperazin-1-yl)-1,4-dihydroquinoline-3-carboxylic acid as an antimicrobial compound” (KING FAISAL UNIVERSITY, priority 2023, dated 2024).

How the values were obtained:
Format in all cases: cell-based
Bacillus Cereus = experiment: agar plate disc-diffusion, inhibition zone; details: Gram positive; for zone of inhibition at 10000 ppm: A = concentration of comp. = 10,000 ppm; for zone of inhibition at 30000 ppm: B = concentration of comp. = 30000 ppm; for zone of inhibition at 50000 ppm: C = concentration of comp. = 50,000 ppm
Description: (§1) The antimicrobial properties of the synthesized compound was studied by the method of agar plate disc-diffusion. Sterilized filter papers (6 mm in diameter) were wetted with 10 μL of a solution of 1-cyclopropyl-6-fluoro-4-oxo-7-(4-((2-thioxobenzo[d]thiazol-3(2H)-yl)methyl)piperazin-1-yl)-1,4-dihydroquinoline-3-carboxylic acid (4) to be tested, containing 10 mg/mL in DMSO and the discs were allowed to air dry. The discs were then placed onto the surface of agar plates (nutrient agar for bacteria) seeded with the test organism. Each plate contained 15 mL of the agar medium, previously seeded with 0.2 mL of the broth culture of each organism pregrown for 18 h. The inhibition zones were measured in […]. Discs impregnated with DMSO were used as a control, and its inhibition zone was subtracted from the tested compound actual inhibition zone.

Escherichia coli = experiment: agar plate disc-diffusion, inhibition zone; details: Gram negative; for zone of inhibition at 10000 ppm: A = concentration of comp. = 10,000 ppm; for zone of inhibition at 30000 ppm: B = concentration of comp. = 30000 ppm; for zone of inhibition at 50000 ppm: C = concentration of comp. = 50,000 ppm
Description: as §1

Pseudomonas aeruginosa = experiment: agar plate disc-diffusion, inhibition zone; details: Gram negative; for zone of inhibition at 10000 ppm: A = concentration of comp. = 10,000 ppm; for zone of inhibition at 30000 ppm: B = concentration of comp. = 30000 ppm; for zone of inhibition at 50000 ppm: C = concentration of comp. = 50,000 ppm
Description: as §1

Staphylococcus aureus = experiment: agar plate disc-diffusion, inhibition zone; details: Gram positive; for zone of inhibition at 10000 ppm: A = concentration of comp. = 10,000 ppm; for zone of inhibition at 30000 ppm: B = concentration of comp. = 30000 ppm; for zone of inhibition at 50000 ppm: C = concentration of comp. = 50,000 ppm
Description: as §1

[1] = test system: gram positive and gram-negative bacterial strains; experiment: antibacterial activity screen, overall statement; details: Bacillus cereus, Staphylococcus aureus, Pseudomonas aeruginosa and Escherichia coli
Description: as §1

`O=C(O)c1cn(C2CC2)c2cc(N3CCNCC3)c(F)cc2c1=O` [Cip., ciprofloxacin, reference compound] showed a zone of inhibition at 10000 ppm (Bacillus Cereus) of 29 mm, a zone of inhibition at 30000 ppm (Bacillus Cereus) of 30 mm and a zone of inhibition at 50000 ppm (Bacillus Cereus) of 42 mm. The zone of inhibition at 10000 ppm (Escherichia coli) was 30 mm, the zone of inhibition at 30000 ppm (Escherichia coli) was 39 mm and the zone of inhibition at 50000 ppm (Escherichia coli) was 60 mm. For the same molecule, the zone of inhibition at 10000 ppm (Pseudomonas aeruginosa) was 29 mm, the zone of inhibition at 30000 ppm (Pseudomonas aeruginosa) was 30 mm and the zone of inhibition at 50000 ppm (Pseudomonas aeruginosa) was 53 mm. It also gave a zone of inhibition at 10000 ppm (Staphylococcus aureus) of 43 mm, a zone of inhibition at 30000 ppm (Staphylococcus aureus) of 44 mm and a zone of inhibition at 50000 ppm (Staphylococcus aureus) of 53 mm.

`O=C(O)c1cn(C2CC2)c2cc(N3CCN(Cn4c(=S)sc5ccccc54)CC3)c(F)cc2c1=O` [Compound 4, 1-cyclopropyl-6-fluoro-4-oxo-7-(4-((2-thioxobenzo[d]thiazol-3(2H)-yl)methyl)piperazin-1-yl)-1,4-dihydroquinoline-3-carboxylic acid] gave a zone of inhibition at 10000 ppm (Bacillus Cereus) of 35 mm, a zone of inhibition at 30000 ppm (Bacillus Cereus) of 39 mm and a zone of inhibition at 50000 ppm (Bacillus Cereus) of 44 mm. The zone of inhibition at 10000 ppm (Escherichia coli) was 39 mm, the zone of inhibition at 30000 ppm (Escherichia coli) was 44 mm and the zone of inhibition at 50000 ppm (Escherichia coli) was 49 mm. It also gave a zone of inhibition at 10000 ppm (Pseudomonas aeruginosa) of 24 mm, a zone of inhibition at 30000 ppm (Pseudomonas aeruginosa) of 31 mm and a zone of inhibition at 50000 ppm (Pseudomonas aeruginosa) of 39 mm. For the same molecule, the zone of inhibition at 10000 ppm (Staphylococcus aureus) was 10 mm, the zone of inhibition at 30000 ppm (Staphylococcus aureus) was 17 mm and the zone of inhibition at 50000 ppm (Staphylococcus aureus) was 22 mm. The “antibacterial activities (in words)” value [1] was “good antibacterial activities”.
